Laboratory results from a melting point compilation (Tetko et al.; mined from patent text by program, amines drawn as free bases though some values may be those of a salt).

First: CC1(C)CCC(C)(C)c2cc(C(C(N)=O)C(=O)OCc3ccccc3)ccc21 (stereo not given)
Second: O=C(NCCc1c[nH]c2ccc(F)cc12)OCc1ccccc1
The melting point of the first is higher: 112 to 113 °C for the first, 104 to 105 °C for the second.

Compared with `COc1ccc(C(N)=O)c(OC)c1-c1ccc(C[C@H](NC(=O)c2c(Cl)cc(NC(N)=O)cc2Cl)C(=O)O)cc1`, `Cc1ccc(C(=O)Nc2ccc(CCc3ccc(O)c(O)c3)cc2)c(O)c1` is lower in melting point: 217 to 219 °C for the first, 201 to 202 °C for the second.

First: CCN1CCc2cc(OC)c(OC)cc2C12CCC(C=O)CC2C1c2cc(OC)c(OC)cc2CCN1C (stereo not given)
Second: COc1cc2[nH]c(=O)c3c(c2cc1OC)CCN(CCC1CCCCC1)C3
The melting point of the first is lower: 137 to 139 °C for the first, 195 to 198 °C for the second.

First: COc1cccc(CN[C@H](C)c2ccc([N+](=O)[O-])cc2)c1O
Second: O=C(O)c1cc(NCc2ccc([N+](=O)[O-])cc2)ccc1O
The melting point of the first is lower: 112 to 114 °C for the first, 211 to 212 °C for the second.

First: CC(C)CC(SC1CCCC1)c1c(O)cc(-c2ccccc2)oc1=O (stereo not given)
Second: CC#CC(Cc1ccccc1)n1nnc2cc3c(cc2c1=O)OC1CCCN1C3=O (stereo not given)
The melting point of the first is lower: 146 to 149 °C for the first, 160 to 162 °C for the second.

First: O=c1c2c(n(-c3cccc(Cl)c3)c3ncccc13)CCCC2
Second: Cc1c(C)n(-c2ccccc2)c2ncn(C)c(=O)c12
The melting point of the first is lower: 195 to 198 °C for the first, 207 to 208 °C for the second.

First: NN1C=NNC1=Cc1ccccc1
Second: O=C1CNc2ncc(I)cc2N1Cc1ccccc1
The melting point of the first is lower: 171 to 173 °C for the first, 225 °C for the second.

Compared with `CC(C)c1ccc(-c2ccc(-c3cccc(C(=O)O)c3)s2)cc1`, `CC(C)c1cccc(C(C)C)c1NC(=O)CNC(c1ccccc1)c1ccc(Br)cc1` (stereo not given) is lower in melting point: 233 to 235 °C for the first, 154 to 155 °C for the second.

First: O=C(Nc1ccccc1S(=O)(=O)NCCCn1ccnc1)c1cccc(C(F)(F)F)c1
Second: CCCCc1nn(-c2cc(NC(=O)CC)ccc2C(F)(F)F)c(=O)n1Cc1ccc(-c2ccccc2S(=O)(=O)NC(=O)OC(C)(C)C)cc1F
The melting point of the first is lower: 145 to 147 °C for the first, 167 to 169 °C for the second.

First: CCCCCN(CCCCC)C(=O)C(CCC(=O)OC)CS(=O)c1ccc(Cl)c(Cl)c1 (stereo not given)
Second: CC1=C(C)C(=O)C(C(CCCCCCC(=O)O)c2cccnc2)=C(C)C1=O (stereo not given)
The melting point of the first is lower: 64 to 65 °C for the first, 113 to 114 °C for the second.

First: O=C/C=C/c1cc2ccccc2o1
Second: O=C(Nc1cnccc1C(=O)O)OCc1cc2cc(-c3ccccc3)ccc2o1
The melting point of the first is lower: 67 °C for the first, 236 to 239 °C for the second.

Compared with `COc1cccc(C2(CCCCC(=O)O)CCCCC2=O)c1` (stereo not given), `C=CCOc1ccc(C(=O)O[C@H]2CC[C@H](C(=O)CCCCCBr)CC2)cc1` is lower in melting point: 89 to 91 °C for the first, 56 °C for the second.

First: CC(C)COc1ccc(C(=O)N/C(=C\c2ccc(OC(F)F)cc2)C(=O)NCCO)cc1
Second: CC(C)CC(NC(=O)Cc1ccc(NC(=O)Nc2ccccc2)cc1)c1ncc(CCC(=O)O)s1 (stereo not given)
The melting point of the first is lower: 75 to 78 °C for the first, 146 to 148 °C for the second.

Compared with `CCCCn1c(C)nc(SC)nc1=O`, `CCn1c(C)nc2cc(C#N)ccc21` is higher in melting point: 62 to 63 °C for the first, 162 °C for the second.

Compared with `OC(CCCN1CC=C(c2noc(C3CC3)n2)CC1)c1ccc(F)cc1` (stereo not given), `O=C(O)CC(CC(=O)O)c1ccc(F)cc1` is higher in melting point: 89 to 92 °C for the first, 145 to 147 °C for the second.

Compared with `CCCCCOc1ccc(-c2ccc(-c3nc(N)nc(N)n3)cc2)cc1`, `Clc1ccc(OCc2noc(-c3ccccc3)n2)cc1` is lower in melting point: 246 to 249 °C for the first, 96 to 102 °C for the second.

First: Cc1nc2c(N)nc3cc(OCc4ccccc4)ccc3c2n1CC(C)C
Second: Nc1nc2ccccc2c2c1ncn2CCCCNC(=O)c1ccc(C(=O)c2ccccc2)cc1
The melting point of the first is higher: 172 °C for the first, 159 to 161 °C for the second.

Compared with `COCC(C)(C)C(=O)O[C@H]1C[C@H](O)C=C2C=C[C@H](C)[C@H](CC[C@@H]3C[C@@H](O)CC(=O)O3)[C@H]21`, `CCCCNC(=O)NS(=O)(=O)c1cc2c(cc1OC)OCC(NC(=O)c1cc(Cl)ccc1OC)C2` (stereo not given) is higher in melting point: 140 to 142 °C for the first, 185 to 186 °C for the second.

Compared with `CN1CCN(c2cccc3c2C[C@H](NC(=O)c2ccc(N4CCN(CCO)CC4)cc2)CO3)CC1`, `CN1CCN(c2cccc3c2C[C@H](NC(=O)c2cccc(Oc4ccccc4)c2)CC3)CC1` is lower in melting point: 211 to 212 °C for the first, 136 to 137 °C for the second.

First: CC(C)(C(N)=O)c1ccc(Cl)cc1
Second: CC(c1ccc(Cl)cc1)N1CCNC1=NC(N)=S (stereo not given)
The melting point of the first is higher: 125 °C for the first, 107 °C for the second.

Compared with `CC1SCCCNC1=O` (stereo not given), `CC1Cc2cccc(S(N)(=O)=O)c2N1` (stereo not given) is lower in melting point: 192 to 193 °C for the first, 110 to 112 °C for the second.

First: CC1(CF)C(=O)N(c2ccc(C#N)c(C(F)(F)F)c2)C(=O)N1CCF (stereo not given)
Second: COc1ccc(/C=C(\C#N)c2ccccc2C(F)(F)F)cc1OC1CCCC1
The melting point of the first is higher: 137 to 138 °C for the first, 96 to 98 °C for the second.

Compared with `N#CCc1cccc2cnccc12`, `OC1CSC(Oc2cccc(-c3cnccn3)c2)C(O)C1O` (stereo not given) is higher in melting point: 130 to 131 °C for the first, 206 to 209 °C for the second.

First: O=C(Nc1ccccc1)O[C@@H]1CN=C(c2ccccc2F)O[C@H]1c1ccccc1 (racemic)
Second: CN1CC=C(c2cccc3ccc(N(Cc4ccccc4)Cc4ccccc4)cc23)CC1
The melting point of the first is higher: 128 °C for the first, 124 to 126 °C for the second.

Compared with `OC(COc1ccccc1)CN1CCN(c2nc3nccc(-c4ccncc4)n3n2)CC1` (stereo not given), `CN1CCC(Oc2cnccn2)(c2ccccc2)CC1` is lower in melting point: 143 to 145 °C for the first, 115 to 116 °C for the second.

First: O=C(O)CCc1ccc(O)c(C=Nc2cc(S(=O)(=O)O)ccc2O)c1
Second: CC(=O)SCC(Cc1noc2ccccc12)C(=O)Nc1cccc(C(=O)O)c1 (stereo not given)
The melting point of the first is higher: > 275 °C for the first, 185 to 187 °C for the second.

First: COc1cc(N)c(Cl)cc1-c1nn(C2CC3CCC(C2)N3C)c(=O)o1 (stereo not given)
Second: Nc1ncnc2c1ncn2[C@@H]1O/C(=C\F)[C@@H](O)[C@H]1O
The melting point of the first is lower: 208 °C for the first, 225 to 230 °C for the second.

Compared with `COc1cc(COc2nn(-c3ccc(C(F)(F)F)cc3)cc2/C=C/C(=O)OCOC(=O)C(C)(C)C)ccc1OCc1nc(-c2ccccc2)oc1C`, `CCN(CC)CCCn1ccc2cc(Nc3ncnc4cc(-c5ccccc5)sc34)ccc21` is higher in melting point: 131 to 132 °C for the first, 178 to 180 °C for the second.

First: COc1cccc(C(O)(c2nccs2)C(F)(F)F)c1 (stereo not given)
Second: NCCNC(=O)c1cc2c(Oc3ccc(Cl)cc3)cncc2s1
The melting point of the first is lower: 88 to 92 °C for the first, 111 to 114 °C for the second.

First: OCC[C@H]1CN(Cc2ccccc2)CCN1
Second: CCOC(=O)c1[nH]c2cc(Cl)cc(Cl)c2c1NS(=O)(=O)c1ccccc1
The melting point of the first is lower: 78.9 to 80.4 °C for the first, 245 to 247 °C for the second.

Compared with `O=C1NC(=O)c2c1cc1ccc3c(c1c2-c1ccc(F)cc1)OCC3`, `Cc1cc(I)ccc1Nc1c(-c2nnco2)ccc(F)c1F` is lower in melting point: > 310 °C for the first, 144 to 146 °C for the second.

First: CNc1cc(F)ccc1C(=O)CS(=O)(=O)NC
Second: COc1cc(OC)nc(NC(=O)NS(=O)(=O)c2ccccc2CN2CN=CN2)n1
The melting point of the first is lower: 140 to 142 °C for the first, 219 to 220 °C for the second.

First: CC(C)(C)OC(=O)COc1ccc(C(=O)NNC(=O)c2ccc(CNC(=O)OC(C)(C)C)cc2)cc1OCC(=O)OC(C)(C)C
Second: Cc1c(NC(=O)c2ccc(OCC3CCOC3)cc2)ccc2cc(CN3CCC(C)(O)CC3)cnc12 (stereo not given)
The melting point of the first is lower: 156 to 158 °C for the first, 160 to 162 °C for the second.

Compared with `COC1(c2cccc(S(=O)(=O)c3ccc4c(c3)C(C)(C)S(=O)(=O)C4(C)C)c2)CCOCC1`, `Cc1nc2cc(NC(=O)c3cc4cc(F)ccc4n3Cc3cccc(F)c3)ccn2c1C` is higher in melting point: 115 °C for the first, 251 to 253 °C for the second.

First: CCCn1c(=O)c2[nH]c(-c3cc(C)n(CC(=O)Nc4cccc(Cl)c4)n3)nc2n(CCC)c1=O
Second: Cc1c(C(=O)N=C(N)N)cc(S(C)(=O)=O)c(-n2ccnc2)c1C
The melting point of the first is higher: 304 to 307 °C for the first, 249 °C for the second.
